Experimental findings from patent US20200199530A1, “METHODS OF DIFFERENTIATING STEM CELL-DERIVED ECTODERMAL LINEAGE PRECURSORS” (MEMORIAL SLOAN-KETTERING CANCER CENTER, priority 2017, published 2020) are described below.

Common to all, as to assay type: cell-based, human
For one series, the system named is H9 SIX1 H2B::GFP cells. The series can be described thus: LOPAC small-molecule screen for enhancers of placode fate and hit validation. Particulars: for validation of primary hits: percentage of cells expressing SIX1: CP protocol, FIG. 6C, 13A/13B, 44A/44B; for expression of SIX1 relative to control differentiations (primary screen): LOPAC library, 1 μM and 10 μM, added day 3, read day 6. The protocol: (§1) H9 SIX1 H2B::GFP cells were differentiated into lens placode as described earlier and plated on 96 well plates coated with Matrigel. On day 3 (day before SIX1 H2B::GFP can be detected in individual cells) the medium was additionally supplemented with compounds from the LOPAC library. Two different concentrations (1 μM and 10 μM) per compound were used. Medium was not changed until day 6 of differentiation. On day 6 of differentiation plates were washed once with PBS and cells were fixed with 4% PFA. To increase the signal intensity over background, the cells were stained using an antibody against GFP. After labeling with an appropriate Alexa488-conjugated secondary antibody and the nuclear counterstain DAPI, cells were analyzed using the Meta Express software (Meta-morph) by calculating the percent nuclear GFP signal over DAPI positive cells.

Series [1] relates to hPSC differentiated towards CP (SIX1). The series can be described thus: Phenanthroline in CP differentiation: marker expression and SIX1 positive cells. Particulars: for SIX1 positive cells: CP protocol, FIG. 6E, Phenanthroline alone = absence of FGF2, control 18%. How it is done:
(§2) All differentiations starting from E8 were dissociated into single cells using EDTA and re-plated at high density in E8 with the ROCK inhibitor (Tocris). Cells were typically seeded at a density of 200,000 cells/cm^2 on Matrigel coated dishes. Switching from E8 to E6 triggered differentiations (i.e. d0). Neuroectoderm (NE) formation was generated by culturing the cells in E6 with 10 μM SB and 500 nM LDN until d12. Neural Crest (NC) was first treated with 10 μM SB, 600 nM CHIR and 1 ng/ml BMP4 from d0-d2. At d3, cells were maintained in 10 μM SB with 1.5 uM CHIR until d12. Lens placode was first treated with 10 μM SB and 5 ng/ml BMP4 from d0-d2. At d3, cells were maintained in 10 μM SB with 50 ng/ml FGF2 until d12. Trigeminal placode was first treated with 10 μM SB and 5 ng/ml BMP4 from d0-d2. At d2, 600 nm CHIR was added. At d3, cells were treated with 10 μM SB and 600 nM CHIR. From d4-d12, cells were treated with 10 μM SB. Finally, non-neural ectoderm (NNE) was treated with 10 μM SB, 10 μM SU5402 and 10 ng/ml BMP4 from d0-d1, and then treated with 10 μM SB and 5 ng/ml BMP4 from d2-d12.
as §1

The subject of the next series is hPSCs. Briefly: Tolerability of small molecules during E6-based differentiation. The note with it: had to be re-titrated.
Series [2] concerns hPSC-derived pituitary cells. The series can be described thus: Stimulation of hormone release in vitro (ELISA). The note with it: day 30 cells, CRF 1 μM, Somatocrinin 1 μg/ml, vs solvent control; for ACTH release: Stressin I 2 μM, Urocortin 500 nM, Ghrelin 1 μM. How it is done:
To stimulate hormone release in vitro, cells were differentiated in 24 well plates as described above. On day 30 of differentiation cells were washed once with PBS and 250 μl of fresh medium containing either the solvent or the stimulant were added to each well. After 12 h the supernatant was removed and centrifuged for 5 min at 2000 g to pellet debris. Supernatant was transferred into fresh reaction tubes, flash frozen and stored at −80° C. until ELISA measurements. Stimulants used were: CRF (Tocris, 1 μM), Stressin I (Tocris, 2 μM), Ghrelin (Tocris, 1 μM), Somatocrinin (Accurate Chemical, 1 μg/ml), Nafarelin (Tocris, 1 μM) and Urocortin (Tocris, 500 nM).
Hormone concentration in the supernatant of cells or in animal serum was analyzed using ELISA measurements. Hormone concentration in the cell culture supernatant was assessed using traditional single hormone ELISA Kits according to the manufactures manual. ACTH (Calbiotech, detects rat and human ACTH), hGH (R&D Systems, human specific), FSH (Calbiotech, FSH (lumELISA, human specific) and corticosterone (Abcam). Plates were read using an EnSpire Multimode plate reader (PerkinElmer). Hormone concentration in in vivo samples was analyzed using either traditional ELISA (for ACTH only, serum diluted 1:2) or species specific (human or rat) Milliplex multiplex ELISA using Luminex technology (Millipore). Magnetic bead-based sandwich immunoassay was performed according to the manufactures manual. 25 μl of undiluted serum samples in duplicate wells were analyzed by Luminex FlexMap 3D (Luminex Corp, Austin, Tex.). Cytokine concentrations were determined by Luminex Xponent 4.1 and EMD-Millipore Milliplex Analyst v5.1 using 5-p log analysis.

The subject of series [3] is hPSC (SIX1::H2B-GFP reporter). Briefly: Cranial placode induction in E6 media, SIX1 positive cells. The protocol: as §2
Cranial Placode differentiation. Day 0 (0-24 hrs): Add E6 media containing 5 ng/ml BMP4+10 μM SB to cells.
Day 1 (24-48 hrs): Change media with E6 media containing 5 ng/ml BMP4+10 μM SB to cells.
Day 2 (48-72 hrs): Change media with E6 media containing 5 ng/ml BMP4+10 μM SB to cells. […]

Series [4] relates to hPSC (SOX10::GFP reporter). Briefly: Neural crest induction in E6 media, SOX10 positive cells. The protocol: as §2
Neural Crest differentiation. Day 0 (0-24 hrs): Add E6 media containing 1 ng/ml BMP4+10 μM SB+600 nM CHIR to cells.
Day 1 (24-48 hrs): Change media with E6 media containing 1 ng/ml BMP4+10 μM SB+600 nM CHIR to cells. […]

Series [5] relates to hPSCs (TFAP2A expression). The series can be described thus: BMP4 induction of TFAP2A and non-neural ectoderm in E6 media. The protocol:
as §2, with “Finally, non-neural ectoderm (NNE) was treated with 10 μM SB, 10 μM SU5402 and 10 ng/ml BMP4 from d0-d1, and then treated with 10 μM SB and 5 ng/ml BMP4 from d2-d12.” left out
Human embryonic (H9, H1, HUES8, HUES6 and MEL1) and induced pluripotent stem cells (BJ1, MRC5 and SeV6) were adapted in the E8 media for a minimum of 4 passages (˜2 weeks) and induced to differentiate into the four ectodermal lineages. Bulk differentiations were dissociated using Accutase for 30 min at 37° C. at day 10 of differentiation and seeded in 96 well imaging plates. Cells were fixed two days later using 4% paraformaldehyde and permeabilized using 0.5% Triton-X and maintained in 0.2% Tween all diluted with PBS. Cells were then stained using antibodies against various markers indicative of the ectodermal lineages. Plates were scanned and measurements recorded using an IN Cell Analyzer 6000 (GE) and quantified using the Columbus image analysis software (PerkinElmer). Experiments involving these cell lines were biologically replicated (n=4) and technically replicated (n=2 per biological replicate).

[6] abbreviates: three-day pulse with SB431542 in E6.

“Also recorded” adds a separate entry of the source. Ends that are not written are not given here.

With `CN1CCC(c2c[nH]c3ccc(O)cc23)CC1` [BRL-5443], in the series with H9 SIX1 H2B::GFP cells, the “validation of primary hits: percentage of cells expressing SIX1” value is recorded as “increased the level of SIX1 expressing CP precursor cells” and the “expression of SIX1 relative to control differentiations (primary screen)” value is on record as “increased expression of SIX1 above the levels observed in control differentiations”. Moreover, the “validation of primary hits: percentage of cells expressing SIX1” value in the series on H9 SIX1 H2B::GFP cells (listed as BRL-54443) is given as “did not produce a significant difference”.
`c1cnc2c(c1)ccc1cccnc12` [Phenanthroline] yielded an SIX1 positive cells in series [1] of 69%. Besides, in series [1] (absence of FGF2, 69% versus 18%), the “fold increase of SIX1 positive cells versus control” value is listed as around 4 fold. Besides, the “expression of other lineage markers (Sox10, T, MyoD, Sox17)” value in series [1] (differentiation towards CP, FIG. 6D) is listed as “without inducing the expression of other lineage markers”. In the series with H9 SIX1 H2B::GFP cells, the “validation of primary hits: percentage of cells expressing SIX1” value is “confirmed to reliably enhance the percentage of cells expressing Six1; also recorded: confirmed to trigger a robust increase in the percentage of cells expressing SIX1; also recorded: large majority of cells” and the “expression of SIX1 relative to control differentiations (primary screen)” value is on record as “increased expression of SIX1 above the levels observed in control differentiations”.
As to `Cc1c[nH]c(/C=C2\C(=O)Nc3ccccc32)c1CCC(=O)O` [SU5402, 2-[(1,2-Dihydro-2-oxo-3H-indol-3-ylidene)methyl]-4-methyl-1H-pyrrole-3-pr-opanoic acid], the “cell killing at the original (KSR protocol) concentration” value with hPSCs was “effectively killed the cells”.
Consider “CRF: stimulant of hormone release (Tocris, 1 μM) (SEEPPISLDLTFHLLREVLEMARAEQLAQQAHSNRKLMEII; ends and bridges not checked; UniProt P06850 154-194, looked up)”, for which, in series [2], the ACTH release entry is “induced release of ACTH; also recorded: specifically induced” and the GH release result is on record as “not”.
On to FGF2: activator of FGF signaling, for which the “SIX1 positive cells after addition of FGF agonist” value in series [3] (E6 with SB431542 and BMP pulse, FIG. 2G/38B) is around 50%. The same molecule registered an SIX1 positive cells in series [1] of 34%.
On to “Ghrelin: stimulant used (Tocris, 1 μM) (GSSFLSPEHQRVQQRKESKKPPAKLQPR; ends and bridges not checked; UniProt Q9UBU3 24-51, looked up)”, for which, in series [2], the ACTH release result is “did not trigger ACTH release and not”.
“Somatocrinin: stimulant of hormone release (Accurate Chemical, 1 μg/ml) (YADAIFTNSYRKVLGQLSARKLLQDIMSRQQGESNQERGARARL; ends and bridges not checked; UniProt P01286 32-75, looked up)”: in series [2], the ACTH release entry was “not” and the GH release entry was “induced”. In addition, in series [2] (listed as somatocrinin), the ACTH release result was “did not trigger ACTH release” and the GH release entry was “triggered robust increase in GH release”.
With “Urocortin: stimulant of hormone release (Tocris, 500 nM) (DNPSLSIDLTFHLLRTLLELARTQSQRERAEQNRIIFDSV; ends and bridges not checked; UniProt P55089 83-122, looked up)”, the ACTH release result in series [2] was “specifically induced”; in series [2] (listed as urocortin), “induced release of ACTH”.

B1: BMP4: activator of BMP signaling (protein, UniProt P12644 293-408, looked up)
Bone morphogenetic protein 4: SPKHHSQRARKKNKNCRRHSLYVDFSDVGWNDWIVAPPGYQAFYCHGDCPFPLADHLNSTNHAIVQTLVNSVNSSIPKACCVPTELSAISMLYLDEYDKVVLKNYQEMVVEGCGCR
Regarding B1, the “BMP4 concentration optimal for CP induction (dose-response studies)” value in series [3] (setting [6]) was “around 5 ng/ml”. In series [4] (short pulse 1 ng/ml in combination with WNT activation), the “SOX10 positive NC population” value was “nearly homogenous SOX10 positive NC population; also recorded: nearly homogeneous SOX10+ NC population”. Further, the “BMP4 concentration giving strong NC induction (dose-response studies)” value in series [4] (setting [6]) is on record as “around 1 ng/ml”. Moreover, in series [5] (20 ng/ml), the “NNE marker phenotype at high BMP4 concentration” value was “cells become TFAP2A+ and lack expression of SOX10 and SIX1; also recorded: derivation of TFAP2A+, PAX6−, SIX1−, and SOX10− NNE is achieved”. In series [5] (with addition of BMP4, range across ESC/iPSC lines, 0%-5% without BMP4), the “percentages of TFAP2A+ cells” value was 56%-95%. Besides, in series [5] (within 3 days of treatment, dose-dependent), the TFAP2A expression result was “rapidly upregulated”.
